Key:
Experiment in all cases: relative viability (nuclei count vs DMSO), 5 days (fraction); higher = more cells survive
[1] = compound: C1=CC(=CC=C1C2=CC(=C(S2)NC(=O)N)C(=O)N)F [TPCA-1] + CC(=O)c1c(C)c2cnc(Nc3ccc(N4CCNCC4)cn3)nc2n(C2CCCC2)c1=O [Palbociclib] (partner 0.5 µM)
Summary of the method: (§1)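 Lung cancer cell lines, seeded in 1536-well plates, were treated the following day by pin tool with a single drug or with five library-drug doses (not always all listed) in √10 steps on top of a fixed anchor-drug dose. Cells were fixed and nuclei stained in one step after 5 days, and nuclei were counted. Relative viability is the nuclei count for treated wells divided by that for vehicle wells, reported as medians of duplicate plates.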

[2] = compound: C1=CC(=CC=C1C2=CC(=C(S2)NC(=O)N)C(=O)N)F [TPCA-1] + C[C@]1(O)C[C@@H](c2nc(-c3ccc4ccc(-c5ccccc5)nc4c3)c3c(N)nccn32)C1 [Linsitinib] (partner 1 µM)
Summary of the method: as §1

[3] = compound: C1=CC(=CC=C1C2=CC(=C(S2)NC(=O)N)C(=O)N)F [TPCA-1] + O=C(CCCCCCC(=O)Nc1ccccc1)NO [Vorinostat] (partner 1 µM)
Summary of the method: as §1

[4] = compound: C[C@]12O[C@H](C[C@]1(O)CO)n1c3ccccc3c3c4c(c5c6ccccc6n2c5c31)CNC4=O [Lestaurtinib] + C[C@]1(O)C[C@@H](c2nc(-c3ccc4ccc(-c5ccccc5)nc4c3)c3c(N)nccn32)C1 [Linsitinib] (partner 1 µM)
Summary of the method: as §1

Row | Cell Line | relative viability ([1]; first compound 0.04 µM) | relative viability ([1]; first compound 0.1265 µM) | relative viability ([1]; first compound 0.4 µM) | relative viability ([1]; first compound 1.265 µM) | relative viability ([1]; first compound 4 µM) | relative viability ([2]; first compound 0.04 µM) | relative viability ([2]; first compound 0.1265 µM) | relative viability ([2]; first compound 0.4 µM) | relative viability ([2]; first compound 1.265 µM) | relative viability ([2]; first compound 4 µM) | relative viability ([3]; first compound 0.04 µM) | relative viability ([3]; first compound 0.1265 µM) | relative viability ([3]; first compound 0.4 µM) | relative viability ([3]; first compound 1.265 µM) | relative viability ([3]; first compound 4 µM) | relative viability ([4]; first compound 0.005 µM) | relative viability ([4]; first compound 0.01581 µM) | relative viability ([4]; first compound 0.05 µM) | relative viability ([4]; first compound 0.1581 µM) | relative viability ([4]; first compound 0.5 µM)
1 | ABC-1 | 0.967 | 0.589 | 0.584 | 0.612 | 0.754 | 0.936 | 0.714 | 0.662 | 0.579 | 0.524 | 1.4 | 1.14 | 1.38 | 1.29 | 0.926 | 0.834 | 0.993 | 0.603 | 0.536 | 0.165
2 | IA-LM | – | – | – | – | – | 0.75 | 0.411 | 0.47 | 0.259 | 0.378 | 1.02 | 0.942 | 0.999 | – | 0.699 | 0.459 | 1.02 | 0.927 | 0.792 | 0.553
3 | NCI-H322M | 0.469 | 0.469 | 0.488 | 0.523 | 0.403 | 1.02 | 0.834 | 0.952 | 0.803 | 0.607 | 0.976 | 0.89 | 0.958 | 0.864 | 0.431 | 0.853 | 0.649 | 0.375 | 0.425 | 0.392
4 | NCI-H1792 | 0.707 | 0.562 | 0.593 | 0.574 | 0.496 | 0.574 | 0.467 | 0.561 | 0.47 | 0.283 | – | – | – | – | – | 0.757 | 0.56 | 0.386 | 0.243 | 0.144
5 | LXF-289 | 0.623 | 0.605 | 0.627 | 0.643 | 0.514 | 0.94 | 0.969 | 0.932 | 0.962 | 0.793 | 0.786 | 0.819 | 0.762 | 0.764 | 0.42 | 0.967 | 0.964 | 0.741 | 0.802 | 0.197
6 | HCC-827 | 0.487 | 0.407 | 0.521 | 0.413 | 0.278 | 0.934 | 0.889 | 0.935 | 0.932 | 0.806 | 0.987 | 0.764 | 0.89 | 0.841 | 0.671 | 0.913 | 0.996 | 0.87 | 0.857 | 0.762
7 | EMC-BAC-2 | 0.513 | 0.519 | 0.524 | 0.413 | 0.485 | 0.848 | 0.739 | 0.822 | 0.837 | 0.66 | 0.461 | 0.447 | 0.615 | 0.413 | 0.203 | 0.764 | 0.801 | 0.641 | 0.45 | 0.221
8 | NCI-H520 | 0.281 | 0.162 | 0.164 | 0.282 | 0.232 | 1.16 | 0.832 | 0.989 | 0.838 | 0.921 | 0.72 | 0.636 | 0.782 | 0.605 | 0.497 | 0.944 | 1.14 | 0.632 | 0.549 | 0.256
9 | NCI-H1755 | 0.457 | 0.454 | 0.459 | 0.431 | 0.399 | 0.978 | 0.941 | 1 | 1 | 0.852 | 0.717 | 0.84 | 0.813 | 0.667 | 0.554 | 1.02 | 1.05 | 0.776 | 0.429 | 0.215
10 | NCI-H1993 | 0.726 | 0.531 | 0.645 | 0.717 | 0.534 | 0.711 | – | 0.748 | 0.686 | 0.622 | 0.877 | 0.74 | 0.921 | 0.694 | 0.533 | 0.702 | 0.673 | 0.713 | 0.698 | 0.573
11 | SW 900 | – | – | 0.676 | 0.566 | 0.537 | – | – | – | – | – | – | – | 0.515 | 0.422 | 0.45 | – | – | – | – | –
12 | NCI-H1299 | – | – | – | – | – | 1.13 | 0.904 | 0.942 | 0.777 | 1.01 | – | – | – | – | – | 0.985 | 1.02 | 0.688 | 0.504 | 0.499
13 | NCI-H1563 | – | – | – | – | – | 1.2 | 1.23 | 1.17 | 1.12 | 1.16 | – | – | – | – | – | 1.25 | 1.17 | 1.16 | 1.22 | 0.736
14 | NCI-H1650 | 0.323 | 0.309 | 0.408 | 0.474 | 0.354 | – | – | – | – | – | 0.717 | 0.575 | 0.584 | 0.675 | 0.498 | – | – | – | – | –
15 | NCI-H596 | – | – | – | – | – | 1.14 | 1.05 | 1.13 | 1.11 | 1.14 | 0.64 | 0.613 | 0.696 | 0.668 | 0.616 | 1.04 | 1.01 | 0.882 | 1.21 | 0.907
16 | Calu-6 | – | – | – | – | – | 1.15 | 0.941 | 0.962 | 0.847 | 0.68 | – | – | – | – | – | 0.908 | – | 0.555 | 0.262 | 0.218
17 | NCI-H1703 | – | – | – | – | – | 1.01 | 0.627 | 0.947 | 0.546 | 0.308 | – | – | – | – | – | 0.513 | 0.508 | 0.562 | 0.164 | 0.149
18 | EBC-1 | – | – | – | – | – | 1.06 | 0.825 | 0.815 | 0.844 | 0.814 | – | – | – | – | – | 0.856 | 0.999 | 0.585 | 0.633 | 0.432
19 | NCI-H2342 | 0.461 | 0.546 | 0.535 | 0.534 | 0.547 | – | – | – | – | – | 0.77 | 0.699 | 0.681 | 0.683 | 0.663 | – | – | – | – | –
20 | ChaGo-K-1 | 0.976 | 0.663 | 0.795 | 0.891 | 0.733 | – | – | – | – | – | 0.781 | 0.694 | 0.796 | 0.665 | 0.295 | – | – | – | – | –
21 | NCI-H1648 | 0.254 | 0.245 | 0.262 | 0.254 | 0.199 | – | – | – | – | – | 0.4 | 0.486 | 0.528 | 0.704 | 0.631 | – | – | – | – | –
22 | NCI-H522 | 1.15 | 0.978 | 1.06 | 1.04 | 0.953 | – | – | – | – | – | 1.03 | 0.819 | 1 | 0.842 | 0.987 | – | – | – | – | –
23 | A549 | – | – | – | – | – | 0.627 | 0.567 | 0.638 | 0.469 | 0.314 | – | – | – | – | – | 0.621 | 0.596 | 0.229 | 0.148 | 0.174
